These results are taken from US9867879B2 (Vanderbilt University, priority 2015, dated 2018).

Assay [1] has as its system wild type S. aureus strain Newman. Briefly: Growth inhibition IC50, Newman aerobic. Type of assay: cell-based. The note with it: Staphylococcus aureus, NEWMAN, 95% confidence interval, >60 μM considered nontoxic. On the procedure: (§1) Cultures of wild type S. aureus strain Newman and ΔmenB^14 were grown in aeration tubes aerobically at 37° C. with shaking for 15-18 h. Anaerobic cultures were prepared by growing bacteria at 37° C. without shaking in an anaerobic chamber for 15-18 h. Bacteria from each condition were subcultured 1:100 into TSB containing various concentrations of compound in a 96 well plate. Aerobic wild type and ΔmenB plates are incubated aerobically at 37° C. with shaking while anaerobic plates were grown in an anaerobic chamber (Coy) at 37° C. without shaking. The absorbance at 600 nm (OD600) was determined after 9 h of growth and the fraction of growth at each compound concentration is determined by dividing the OD600 by the vehicle control (DMSO) value. IC50s were calculated using Graphpad Prism 6 and errors are reported as 95% confidence intervals.
(§2) Wild type S. aureus strain Newman was grown in an anaerobic chamber in appropriate media to ensure exclusion of terminal electron acceptors sufficient to force the bacteria to ferment. […] The arbitrary cut off point for toxicity of 60 μM was chosen as many of the compounds were not entirely soluble above this concentration.

The subject of a further assay is ΔmenB. Kind of assay: Growth inhibition IC50, ΔmenB. It counts as cell-based, S. aureus. The note with it: Staphylococcus aureus, 9 h, read-out: IC50 ΔmenB. On the procedure: as §1, with “intervals. […]” for “intervals.”
For assay [2], the system named is wild type S. aureus strain Newman. Briefly: Growth inhibition IC50, Newman anaerobic (fermenting). Type of assay: cell-based. The note with it: for IC50: Staphylococcus aureus, NEWMAN, 9 h of growth, anaerobic chamber, 95% confidence interval, >60 μM considered nontoxic; for toxicity to fermenting / anaerobic S. aureus (in words): anaerobic Newman and ΔmenB, from IC50 data. The method, then:
as §1, §2

The next assay concerns HssRS. Briefly: microbe, parasite or virus in culture. It counts as cell-based, S. aureus. The note with it: for HssRS activation in single point screen: 50 μM, fraction of activation relative to 1, cut-off 0.05, in words; for EC50: Staphylococcus aureus, 6 h; for Efficacy: percent activation of HssRS compared to 1 at 50 μM, error one standard deviation. On the procedure:
Previously reported strains were used.^11 Cultures grown overnight in 5 ml TSB with 10 μg mL^−1 chloramphenicol for 15-18 h were subcultured 1:100 into 0.5 mL TSB with 10 μg mL^−1 chloramphenicol containing compound and incubated at 37° C., 180 rpm for 6 h. Cells were washed and lysed as previously described. 200 μL of a 200 μM catechol solution in 100 mM potassium phosphate (pH 8.0) was added to 20 μL of lysate and the oxidation of catechol was followed by monitoring absorbance at 375 nm for 10 min. Samples were normalized to protein concentration as determined by BCA assay (Pierce).
The above XylE procedure was followed using different concentrations of compound. The data were then entered into Graphpad Prism 6 and fit to a curve to determine EC50 values.
HssRS activation. The library was screened for activation of the heme stress response as an indicator for activation of heme biosynthesis in S. aureus. We began by screening at the single point concentration of 50 μM using a previously described reporter assay (FIG. 4).^11 In this assay, Newman harboring a plasmid with the hrt promoter fused to xylE, a gene encoding a catechol oxidase, is treated with compound for six hours, the bacteria lysed, and the oxidation of catechol by XylE quantified by spectrophotometry. An increase in absorbance due to the oxidation of catechol indicates elevated levels of xylE transcription and hrt promoter activity. Results are expressed as the fraction of activation of HssRS by the compound compared to 1. […] With reference to FIG. 8, activation of HssRS by 3a and 3b at 50 μM. Activity is presented as the fraction of activation by the indicated derivative relative to 1 at 50 μM.

The mark [3] stands for this setting: 9 h, read-out: IC50 Newman aerobic, 9 h of growth, aerobic.

Each structure is given as a SMILES string. Read-outs that look alike come from different tables or passages of the source.

Regarding `Cn1nc(-c2ccc3ccccc3c2O)cc1-c1ccco1` [Compound 4b, 2-(5-(furan-2-yl)-1-methyl-1H-pyrazol-3-yl)naphthalen-1-ol], the IC50 (usually the midpoint of a concentration-inhibition curve) is > 60 µM in assay [1] (setting [3]), 3.3 µM in the assay on ΔmenB and 4.27 µM in assay [2]. Also, the “HssRS activation in single point screen” value in the assay with HssRS was “complete loss of activity”.
For `COc1ccc(-c2cc(-c3ccco3)[nH]n2)c(O)c1` [Compound 1b, 2-(5-(furan-2-yl)-1H-pyrazol-3-yl)-5-methoxyphenol], in assay [1] (setting [3]), the IC50 was > 60 µM. The IC50 in the assay with ΔmenB was > 60 µM. Further, in assay [2], the IC50 is > 60 µM and the “toxicity to fermenting / anaerobic S. aureus (in words)” value is on record as “relatively nontoxic to fermenting S. aureus”. Besides, in the assay on HssRS, the “HssRS activation in single point screen” value is “modest loss of activity compared to 1”, the EC50 came to 50.2 µM and the Efficacy stood at 26.2 ± 6.7%. Also, the EC50 in the assay with HssRS (read-out: pEC50 (converted)) was 50.1 µM.
As to `CS(=O)(=O)Nc1ccccc1-c1cc(-c2ccco2)[nH]n1` [Compound 1h, N-(2-(5-(furan-2-yl)-1H-pyrazol-3-yl)phenyl)methanesulfonamide], the IC50 (in assay [1] (setting [3]); in the assay on ΔmenB; in assay [2]) was > 60 µM in each case. Further, in assay [2], the “toxicity to fermenting / anaerobic S. aureus (in words)” value is listed as “nontoxic under fermentative conditions”. In addition, in the assay with HssRS, the “HssRS activation in single point screen” value is “loss of HssRS activation compared to 1 and 1a”.
Consider `c1ccc(-c2cc(-c3ccco3)[nH]n2)cc1` [Compound 1g, 5-(furan-2-yl)-3-phenyl-1H-pyrazole], for which the 50% inhibitory concentration (IC50) (in assay [1] (setting [3]); in the assay with ΔmenB; in assay [2]) was > 60 µM throughout. For the same compound, in the assay with HssRS, the “HssRS activation in single point screen” value was “loss of HssRS activation compared to 1 and 1a”.
With `Oc1ccccc1-c1cc(-c2ccco2)[nH]n1` [Compound 1a, 2-(5-(furan-2-yl)-1H-pyrazol-3-yl)phenol], the IC50 in assay [1] (9 h of growth, aerobic, read-out: IC50 Newman aerobic) is > 60 µM. For the same compound, the IC50 in the assay with ΔmenB was found to be 35.6 µM. Besides, the “toxicity to fermenting / anaerobic S. aureus (in words)” value in assay [2] is on record as “relatively nontoxic to fermenting S. aureus”. Further, in the assay on HssRS, the “HssRS activation in single point screen” value was “modest loss of activity compared to 1”, the EC50 was 30.4 µM and the Efficacy is given as 28.2 ± 5.4%. For the same compound, the EC50 in the assay with HssRS (read-out: pEC50 (converted)) is 32.4 µM.
`Oc1ccccc1-c1cc(-c2ccccn2)[nH]n1` [Compound 2g]: the IC50 (in assay [1] (setting [3]); with ΔmenB; in assay [2]) was > 60 µM in each case.
For the compound `Cn1nc(-c2ccco2)cc1-c1ccc2ccccc2c1O` [Compound 4a, 2-(3-(furan-2-yl)-1-methyl-1H-pyrazol-5-yl)naphthalen-1-ol], the values for the IC50 (in assay [1] (setting [3]); in the assay on ΔmenB; in assay [2]) were > 60 µM, 15.7 µM and 26.5 µM, respectively. Also, the “toxicity to fermenting / anaerobic S. aureus (in words)” value in assay [2] was “maintains toxicity comparable to the parent molecule”. For the same compound, the “toxicity relative to 4b” value in assay [2] (fermenting wildtype S. aureus and ΔmenB) is “approximately five times less toxic”. In addition, the “HssRS activation in single point screen” value in the assay on HssRS is listed as “complete loss of activity”.
Turning to `COc1ccccc1-c1cc(-c2ccco2)[nH]n1` [Compound 1d, 5-(furan-2-yl)-3-(2-methoxyphenyl)-1H-pyrazole], the IC50 (in assay [1] (setting [3]); in the assay with ΔmenB; in assay [2]) was > 60 µM in each case. Moreover, the “HssRS activation in single point screen” value in the assay with HssRS is “loss of HssRS activation compared to 1 and 1a”.
In the case of `Oc1ccccc1-c1cc[nH]n1` [Compound 2j, 2-(1H-pyrazol-3-yl)phenol], the IC50 (in assay [1] (setting [3]); with ΔmenB; in assay [2]) was > 60 µM throughout. The “toxicity to fermenting / anaerobic S. aureus (in words)” value in assay [2] is given as “nontoxic under all conditions”. The “HssRS activation in single point screen” value in the assay on HssRS was “eliminates activity compared to 1 and 1a”.
Take `COc1c(-c2cc(-c3ccco3)[nH]n2)ccc2ccccc12` [Compound 1c, 5-(furan-2-yl)-3-(1-methoxynaphthalen-2-yl)-1H-pyrazole]: the IC50 (in assay [1] (setting [3]); in the assay on ΔmenB; in assay [2]) was > 60 µM in each case. Besides, the “toxicity to fermenting / anaerobic S. aureus (in words)” value in assay [2] is “eliminates toxicity”. In addition, in the assay on HssRS, the “HssRS activation in single point screen” value was “complete loss of activity”.
For the compound `O=C(Nc1ccccc1-c1cc(-c2ccco2)[nH]n1)c1ccco1` [Compound 1l, N-(2-(5-furan-2-yl)-1H-pyrazol-3-yl)phenylfuran-2-carboxamide], the 50% inhibitory concentration (IC50) is > 60 µM in assay [1] (setting [3]), 21.4 µM in the assay on ΔmenB and 28.8 µM in assay [2].
In the case of `Oc1ccccc1-c1cc(-c2ccoc2)[nH]n1` [Compound 2b], the IC50 (in assay [1] (setting [3]); with ΔmenB; in assay [2]) was > 60 µM in each case.
Consider `Oc1ccccc1-c1cc(C2CCCC2)[nH]n1` [Compound 2n, 2-(5-cyclopentyl-1H-pyrazol-3-yl)phenol], for which the IC50 was > 60 µM in assay [1] (setting [3]), 29.7 µM in the assay with ΔmenB and 25.3 µM in assay [2]. For the same compound, the “toxicity to fermenting / anaerobic S. aureus (in words)” value in assay [2] was “comparably toxic to 1”.
`CCc1cc(-c2ccccc2O)n[nH]1` [Compound 2l, 2-(5-ethyl-1H-pyrazol-3-yl)phenol]: the IC50 (in assay [1] (setting [3]); in the assay on ΔmenB; in assay [2]) was > 60 µM each time. For the same compound, the “toxicity to fermenting / anaerobic S. aureus (in words)” value in assay [2] is listed as “nontoxic under all conditions”.
Regarding `COc1ccc(C(=O)Nc2ccccc2-c2cc(-c3ccco3)[nH]n2)cc1` [Compound 1j, N-(2-(5-(furan-2-yl)-1H-pyrazol-3-yl)phenyl)-4-methoxybenzamide], the IC50 is > 60 µM in assay [1] (setting [3]), 6.63 µM in the assay on ΔmenB and 11.6 µM in assay [2].
Consider `Cc1cc(-c2ccccc2O)n[nH]1` [Compound 2k, 2-(5-methyl-1H-pyrazol-3-yl)phenol], for which the IC50 (in assay [1] (setting [3]); with ΔmenB; in assay [2]) was > 60 µM each time. In addition, in assay [2], the “toxicity to fermenting / anaerobic S. aureus (in words)” value is given as “nontoxic under all conditions”.
Take `Oc1ccccc1-c1cc(-c2cccnc2)[nH]n1` [Compound 2h, 2-(5-(pyridin-3-yl)-1H-pyrazol-3-yl)phenol]: the IC50 (in assay [1] (setting [3]); with ΔmenB; in assay [2]) was > 60 µM in each case.
For `O=C(Nc1ccccc1-c1cc(-c2ccco2)[nH]n1)c1cccc2ccccc12` [Compound 1k, N-(2-(5-(furan-2-yl)-1H-pyrazol-3-yl)phenyl)-1-naphthamide], the IC50 in assay [1] (setting [3]) is > 60 µM; in the assay with ΔmenB it was 5.89 µM; in assay [2] it was 13.4 µM.
On to `COc1ccccc1-c1cc(-c2ccccc2F)[nH]n1` [Compound 3b, 5-(2-fluorophenyl)-3-(2-methoxyphenyl)-1H-pyrazole], for which the IC50 (in assay [1] (setting [3]); in the assay on ΔmenB; in assay [2]) was > 60 µM each time. The “toxicity to fermenting / anaerobic S. aureus (in words)” value in assay [2] is “eliminates toxicity”.
Turning to `CC(C)(C)c1cc(-c2ccccc2O)n[nH]1` [Compound 2m, 2-(5-(tert-butyl)-1H-pyrazol-3-yl)phenol], the IC50 (in assay [1] (setting [3]); in the assay with ΔmenB; in assay [2]) was > 60 µM in each case. Also, the “toxicity to fermenting / anaerobic S. aureus (in words)” value in assay [2] is given as “nontoxic under all conditions”.
